Source: PubChem BioAssay AID2060609 (Molecular Pharmacology Branch, DTP, NCI, 2025)
pIC50: −log10 of the molar value.

Tested on: 855422-203-R-J1-PDC complex spheroids, viability
Assay: Anticancer human tumor 855422-203-R-J1-PDC patient-derived bladder carcinoma cell line growth inhibition [CLK]
Conditions: for pIC50: curve of first compound; for viability, T/C: stronger effect = lower value
How it was run: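 Patient-derived tumor cells grown as complex spheroids with HUVEC endothelial cells and mesenchymal stem cells, treated with drug combinations. Concentrations descend in half-log steps from near clinical Cmax, or from 10 microM if Cmax unknown.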

[1] = second compound 0.0316 µM, first compound 0.0316 µM
[2] = second compound 0.0316 µM, first compound 0.1 µM
[3] = second compound 0.0316 µM, first compound 0.316 µM
[4] = second compound 0.0316 µM, first compound 1 µM
[5] = second compound 0.0316 µM, first compound 3.16 µM
[6] = second compound 0.0316 µM, first compound 10 µM
[7] = second compound 0.1 µM, first compound 0.0316 µM
[8] = second compound 0.1 µM, first compound 0.1 µM
[9] = second compound 0.1 µM, first compound 0.316 µM
[10] = second compound 0.1 µM, first compound 1 µM
[11] = second compound 0.1 µM, first compound 3.16 µM
[12] = second compound 0.1 µM, first compound 10 µM
[13] = second compound 0.316 µM, first compound 0.0316 µM
[14] = second compound 0.316 µM, first compound 0.1 µM
[15] = second compound 0.316 µM, first compound 0.316 µM
[16] = second compound 0.316 µM, first compound 1 µM
[17] = second compound 0.316 µM, first compound 3.16 µM
[18] = second compound 0.316 µM, first compound 10 µM
[19] = second compound 1 µM, first compound 0.0316 µM
[20] = second compound 1 µM, first compound 0.1 µM
[21] = second compound 1 µM, first compound 0.316 µM
[22] = second compound 1 µM, first compound 1 µM
[23] = second compound 1 µM, first compound 3.16 µM
[24] = second compound 1 µM, first compound 10 µM
[25] = second compound 3.16 µM, first compound 0.0316 µM
[26] = second compound 3.16 µM, first compound 0.1 µM
[27] = second compound 3.16 µM, first compound 0.316 µM
[28] = second compound 3.16 µM, first compound 1 µM
[29] = second compound 3.16 µM, first compound 3.16 µM
[30] = second compound 3.16 µM, first compound 10 µM
[31] = second compound 10 µM, first compound 0.0316 µM
[32] = second compound 10 µM, first compound 0.1 µM
[33] = second compound 10 µM, first compound 0.316 µM
[34] = second compound 10 µM, first compound 1 µM
[35] = second compound 10 µM, first compound 3.16 µM
[36] = second compound 10 µM, first compound 10 µM
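Also: spheroids exposed to drugs for seven days before readout.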
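For viability, T/C in this document: 100% = DMSO vehicle control wells.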

## Nc1ccccc1NC(=O)c1ccc(CNC(=O)OCc2cccnc2)cc1 + CN1CCN(c2cc(C(=O)Nc3cc4cc(-c5cnn(C)c5)ccc4cn3)ccn2)CC1
Second compound 0.0316 µM
  pIC50: 6.07
Second compound 0.1 µM
  pIC50: 6.31
Second compound 0.316 µM
  pIC50: > 7.50
Second compound 1 µM
  pIC50: > 7.50
Second compound 3.16 µM
  pIC50: > 7.50
Second compound 10 µM
  pIC50: > 7.50
[1]
  viability, T/C: 87%
[2]
  viability, T/C: 72.8%
[3]
  viability, T/C: 68.8%
[4]
  viability, T/C: 49%
[5]
  viability, T/C: 19.2%
[6]
  viability, T/C: 0.56%
[7]
  viability, T/C: 65.2%
[8]
  viability, T/C: 75.4%
[9]
  viability, T/C: 58.4%
[10]
  viability, T/C: 33%
[11]
  viability, T/C: 10.7%
[12]
  viability, T/C: 0.05%
[13]
  viability, T/C: 5.43%
[14]
  viability, T/C: 5.82%
[15]
  viability, T/C: 9.34%
[16]
  viability, T/C: 3.91%
[17]
  viability, T/C: 0.28%
[18]
  viability, T/C: 0.06%
[19]
  viability, T/C: 0.15%
[20]
  viability, T/C: 0.19%
[21]
  viability, T/C: 0.13%
[22]
  viability, T/C: 0.09%
[23]
  viability, T/C: 0.12%
[24]
  viability, T/C: 0.09%
[25]
  viability, T/C: 0.53%
[26]
  viability, T/C: 1.31%
[27]
  viability, T/C: 0.28%
[28]
  viability, T/C: 0.49%
[29]
  viability, T/C: 0.96%
[30]
  viability, T/C: 0.28%
[31]
  viability, T/C: 0.2%
[32]
  viability, T/C: 0.34%
[33]
  viability, T/C: 0.42%
[34]
  viability, T/C: 0.36%
[35]
  viability, T/C: 0.31%
[36]
  viability, T/C: 0.24%

## CC(=O)O[C@H]1C(=O)[C@@]2(C)[C@H]([C@H](OC(=O)c3ccccc3)[C@]3(O)C[C@H](OC(=O)[C@H](O)[C@@H](NC(=O)c4ccccc4)c4ccccc4)C(C)=C1C3(C)C)[C@]1(OC(C)=O)CO[C@@H]1C[C@@H]2O + CNC(=O)c1ccc(Nc2nc(OC3CCCC3)c3c(-c4ccc5nc(C)oc5c4)c[nH]c3n2)c(OC)c1
Second compound 0.0316 µM
  pIC50: > 7.50
Second compound 0.1 µM
  pIC50: > 7.50
Second compound 0.316 µM
  pIC50: > 7.50
Second compound 1 µM
  pIC50: > 7.50
Second compound 3.16 µM
  pIC50: > 7.50
Second compound 10 µM
  pIC50: > 7.50
[1]
  viability, T/C: 8.98%
[2]
  viability, T/C: 6.61%
[3]
  viability, T/C: 7.27%
[4]
  viability, T/C: 7.58%
[5]
  viability, T/C: 8.71%
[6]
  viability, T/C: 11.3%
[7]
  viability, T/C: 16.5%
[8]
  viability, T/C: 11.2%
[9]
  viability, T/C: 13.8%
[10]
  viability, T/C: 11.9%
[11]
  viability, T/C: 15%
[12]
  viability, T/C: 25.5%
[13]
  viability, T/C: 30.5%
[14]
  viability, T/C: 28.8%
[15]
  viability, T/C: 29.2%
[16]
  viability, T/C: 31.9%
[17]
  viability, T/C: 34.4%
[18]
  viability, T/C: 31.5%
[19]
  viability, T/C: 32%
[20]
  viability, T/C: 25.3%
[21]
  viability, T/C: 28.1%
[22]
  viability, T/C: 35.5%
[23]
  viability, T/C: 36.5%
[24]
  viability, T/C: 27%
[25]
  viability, T/C: 28.6%
[26]
  viability, T/C: 28.3%
[27]
  viability, T/C: 21.7%
[28]
  viability, T/C: 31.7%
[29]
  viability, T/C: 31.8%
[30]
  viability, T/C: 24.2%
[31]
  viability, T/C: 23.4%
[32]
  viability, T/C: 33.6%
[33]
  viability, T/C: 25.5%
[34]
  viability, T/C: 24.9%
[35]
  viability, T/C: 31.4%
[36]
  viability, T/C: 26.3%

## CC(=O)O[C@H]1C(=O)[C@@]2(C)[C@H]([C@H](OC(=O)c3ccccc3)[C@]3(O)C[C@H](OC(=O)[C@H](O)[C@@H](NC(=O)c4ccccc4)c4ccccc4)C(C)=C1C3(C)C)[C@]1(OC(C)=O)CO[C@@H]1C[C@@H]2O + CN1CCN(c2cc(C(=O)Nc3cc4cc(-c5cnn(C)c5)ccc4cn3)ccn2)CC1
Second compound 0.0316 µM
  pIC50: > 7.50
Second compound 0.1 µM
  pIC50: > 7.50
Second compound 0.316 µM
  pIC50: > 7.50
Second compound 1 µM
  pIC50: > 7.50
Second compound 3.16 µM
  pIC50: > 7.50
Second compound 10 µM
  pIC50: > 7.50
[1]
  viability, T/C: 8.75%
[2]
  viability, T/C: 7.02%
[3]
  viability, T/C: 5.26%
[4]
  viability, T/C: 9.34%
[5]
  viability, T/C: 9.46%
[6]
  viability, T/C: 10.8%
[7]
  viability, T/C: 8.5%
[8]
  viability, T/C: 7.8%
[9]
  viability, T/C: 6.23%
[10]
  viability, T/C: 6.41%
[11]
  viability, T/C: 8.14%
[12]
  viability, T/C: 8.37%
[13]
  viability, T/C: 4.94%
[14]
  viability, T/C: 5.41%
[15]
  viability, T/C: 5.22%
[16]
  viability, T/C: 4.69%
[17]
  viability, T/C: 4.5%
[18]
  viability, T/C: 5.61%
[19]
  viability, T/C: 0.21%
[20]
  viability, T/C: 0.19%
[21]
  viability, T/C: 0.18%
[22]
  viability, T/C: 1.39%
[23]
  viability, T/C: 1.11%
[24]
  viability, T/C: 0.14%
[25]
  viability, T/C: 0.45%
[26]
  viability, T/C: 0.41%
[27]
  viability, T/C: 0.38%
[28]
  viability, T/C: 0.39%
[29]
  viability, T/C: 0.32%
[30]
  viability, T/C: 0.37%
[31]
  viability, T/C: 1.12%
[32]
  viability, T/C: 0.73%
[33]
  viability, T/C: 0.33%
[34]
  viability, T/C: 1.28%
[35]
  viability, T/C: 0.43%
[36]
  viability, T/C: 2.45%

## O=C(c1cc(Cc2n[nH]c(=O)c3ccccc23)ccc1F)N1CCN(C(=O)C2CC2)CC1 + CNC(=O)c1ccc(Nc2nc(OC3CCCC3)c3c(-c4ccc5nc(C)oc5c4)c[nH]c3n2)c(OC)c1
Second compound 0.0316 µM
  pIC50: < 5.00
Second compound 0.1 µM
  pIC50: 5.32
Second compound 0.316 µM
  pIC50: > 7.50
Second compound 1 µM
  pIC50: > 7.50
Second compound 3.16 µM
  pIC50: > 7.50
Second compound 10 µM
  pIC50: > 7.50
[1]
  viability, T/C: 117%
[2]
  viability, T/C: 100%
[3]
  viability, T/C: 111%
[4]
  viability, T/C: 98.1%
[5]
  viability, T/C: 112%
[6]
  viability, T/C: 82.5%
[7]
  viability, T/C: 58.6%
[8]
  viability, T/C: 69.4%
[9]
  viability, T/C: 63.6%
[10]
  viability, T/C: 47.4%
[11]
  viability, T/C: 57.2%
[12]
  viability, T/C: 45.1%
[13]
  viability, T/C: 20.3%
[14]
  viability, T/C: 21.5%
[15]
  viability, T/C: 21.1%
[16]
  viability, T/C: 23.7%
[17]
  viability, T/C: 21.9%
[18]
  viability, T/C: 23.8%
[19]
  viability, T/C: 24.4%
[20]
  viability, T/C: 21.6%
[21]
  viability, T/C: 21.1%
[22]
  viability, T/C: 28.1%
[23]
  viability, T/C: 22.1%
[24]
  viability, T/C: 18.5%
[25]
  viability, T/C: 23.3%
[26]
  viability, T/C: 22.3%
[27]
  viability, T/C: 21.6%
[28]
  viability, T/C: 19.9%
[29]
  viability, T/C: 21.3%
[30]
  viability, T/C: 23.4%
[31]
  viability, T/C: 18.5%
[32]
  viability, T/C: 18%
[33]
  viability, T/C: 17.9%
[34]
  viability, T/C: 20%
[35]
  viability, T/C: 19.9%
[36]
  viability, T/C: 19.5%

## O=C(c1cc(Cc2n[nH]c(=O)c3ccccc23)ccc1F)N1CCN(C(=O)C2CC2)CC1 + CN1CCN(c2cc(C(=O)Nc3cc4cc(-c5cnn(C)c5)ccc4cn3)ccn2)CC1
Second compound 0.0316 µM
  pIC50: < 5.00
Second compound 0.1 µM
  pIC50: < 5.00
Second compound 0.316 µM
  pIC50: > 7.50
Second compound 1 µM
  pIC50: > 7.50
Second compound 3.16 µM
  pIC50: > 7.50
Second compound 10 µM
  pIC50: > 7.50
[1]
  viability, T/C: 97.5%
[2]
  viability, T/C: 93.4%
[3]
  viability, T/C: 94.5%
[4]
  viability, T/C: 119%
[5]
  viability, T/C: 106%
[6]
  viability, T/C: 91.2%
[7]
  viability, T/C: 79.5%
[8]
  viability, T/C: 82%
[9]
  viability, T/C: 86.8%
[10]
  viability, T/C: 89.6%
[11]
  viability, T/C: 83.5%
[12]
  viability, T/C: 80.8%
[13]
  viability, T/C: 7.7%
[14]
  viability, T/C: 9.07%
[15]
  viability, T/C: 12.2%
[16]
  viability, T/C: 13.9%
[17]
  viability, T/C: 9.53%
[18]
  viability, T/C: 7.3%
[19]
  viability, T/C: 0.24%
[20]
  viability, T/C: 0.27%
[21]
  viability, T/C: 0.24%
[22]
  viability, T/C: 0.2%
[23]
  viability, T/C: 2.03%
[24]
  viability, T/C: 0.16%
[25]
  viability, T/C: 0.76%
[26]
  viability, T/C: 0.67%
[27]
  viability, T/C: 1.9%
[28]
  viability, T/C: 0.61%
[29]
  viability, T/C: 1.44%
[30]
  viability, T/C: 0.45%
[31]
  viability, T/C: 0.43%
[32]
  viability, T/C: 0.39%
[33]
  viability, T/C: 0.38%
[34]
  viability, T/C: 0.33%
[35]
  viability, T/C: 0.7%
[36]
  viability, T/C: 0.32%
